According to article PMC8333062, “Chemical tools for epichaperome-mediated interactome dysfunctions of the central nervous system” (Nature Communications, 2021):
Where “and” joins values, the source holds several entries; their conditions need not be identical. Equal values may be shown once.

Columns and labels:
[1] = target: T1, hERG potassium channel (IKr) (Homo sapiens, UniProt Q12809); experiment: General side effect profile (SEP) II diversity panel; assay type: binding; conditions: human; 1.0E-5 M; read-out: Percent Inhibition: Potassium Channel, I [Kr] (hERG) (h)
T1 construct: purchased Caliper Life Sciences (now PerkinElmer), NOVASCREEN General SEP II

[2] = target: T2, 70 key receptor, enzyme, and ion channel proteins (Homo sapiens, UniProt P50406); experiment: as above; assay type: binding; conditions: 1.0E-5 M
T2 construct: purchased Caliper Life Sciences (now PerkinElmer), NOVASCREEN General SEP II

[3] = target: T3, 70 key receptor, enzyme, and ion channel proteins (Homo sapiens, UniProt P25101); experiment: as above; assay type: binding; conditions: 1.0E-5 M
T3 construct: purchased Caliper Life Sciences (now PerkinElmer), NOVASCREEN General SEP II

[4] = target: T4, 70 key receptor, enzyme, and ion channel proteins (Homo sapiens, UniProt P29274); experiment: as above; assay type: binding; conditions: 1.0E-5 M
T4 construct: purchased Caliper Life Sciences (now PerkinElmer), NOVASCREEN General SEP II

[5] = target: T5, 70 key receptor, enzyme, and ion channel proteins (Homo sapiens, UniProt P08172); experiment: as above; assay type: binding; conditions: 1.0E-5 M
T5 construct: purchased Caliper Life Sciences (now PerkinElmer), NOVASCREEN General SEP II

[6] = target: T6, 70 key receptor, enzyme, and ion channel proteins (Homo sapiens, UniProt O76074); experiment: as above; assay type: binding; conditions: 1.0E-5 M
T6 construct: purchased Caliper Life Sciences (now PerkinElmer), NOVASCREEN General SEP II

[7] = target: T7, 70 key receptor, enzyme, and ion channel proteins (Homo sapiens, UniProt Q99808); experiment: as above; assay type: binding; conditions: 1.0E-5 M
T7 construct: purchased Caliper Life Sciences (now PerkinElmer), NOVASCREEN General SEP II

[8] = target: T8, 70 key receptor, enzyme, and ion channel proteins (Homo sapiens, UniProt P21917); experiment: as above; assay type: binding; conditions: 1.0E-5 M
T8 construct: purchased Caliper Life Sciences (now PerkinElmer), NOVASCREEN General SEP II

[9] = target: T9, 70 key receptor, enzyme, and ion channel proteins (Homo sapiens, UniProt P47898); experiment: as above; assay type: binding; conditions: 1.0E-5 M
T9 construct: purchased Caliper Life Sciences (now PerkinElmer), NOVASCREEN General SEP II

[10] = target: T10, 70 key receptor, enzyme, and ion channel proteins (Homo sapiens, UniProt P08173); experiment: as above; assay type: binding; conditions: 1.0E-5 M
T10 construct: purchased Caliper Life Sciences (now PerkinElmer), NOVASCREEN General SEP II

[11] = target: T11, 70 key receptor, enzyme, and ion channel proteins (Homo sapiens, UniProt P21731); experiment: as above; assay type: binding; conditions: 1.0E-5 M
T11 construct: purchased Caliper Life Sciences (now PerkinElmer), NOVASCREEN General SEP II

[12] = target: T12, 70 key receptor, enzyme, and ion channel proteins (Homo sapiens, UniProt P21728); experiment: as above; assay type: binding; conditions: 1.0E-5 M
T12 construct: purchased Caliper Life Sciences (now PerkinElmer), NOVASCREEN General SEP II

[13] = target: T13, 70 key receptor, enzyme, and ion channel proteins (Homo sapiens, UniProt P08908); experiment: as above; assay type: binding
T13 construct: purchased Caliper Life Sciences (now PerkinElmer), NOVASCREEN General SEP II

[14] = target: T14, 70 key receptor, enzyme, and ion channel proteins (Homo sapiens, UniProt P07550); experiment: as above; assay type: binding; conditions: 1.0E-5 M
T14 construct: purchased Caliper Life Sciences (now PerkinElmer), NOVASCREEN General SEP II

[15] = target: 70 key receptor, enzyme, and ion channel proteins (Homo sapiens, UniProt P35372); experiment: as above; assay type: binding
[16] = target: 70 key receptor, enzyme, and ion channel proteins (Homo sapiens, UniProt P11229); experiment: as above; assay type: binding
[17] = target: T15, 70 key receptor, enzyme, and ion channel proteins (Homo sapiens, UniProt P34969); experiment: as above; assay type: binding; conditions: 1.0E-5 M
T15 construct: purchased Caliper Life Sciences (now PerkinElmer), NOVASCREEN General SEP II

[18] = target: 70 key receptor, enzyme, and ion channel proteins (Homo sapiens, UniProt P41143); experiment: as above; assay type: binding
[19] = target: T16, 70 key receptor, enzyme, and ion channel proteins (Homo sapiens, UniProt P49146); experiment: as above; assay type: binding; conditions: 1.0E-5 M
T16 construct: purchased Caliper Life Sciences (now PerkinElmer), NOVASCREEN General SEP II

[20] = target: T17, muscarinic receptor M5 (printed "MS") (Homo sapiens, UniProt P08912); experiment: as above; assay type: binding; conditions: human; 1.0E-5 M; read-out: Percent Inhibition: Muscarinic, MS (h)
T17 construct: purchased Caliper Life Sciences (now PerkinElmer), NOVASCREEN General SEP II

patient-derived GSCs = experiment: GSC viability (CellTiter-Glo, 48 h); assay type: cell-based, human; design: %Survival of cells at day 0 (ATP levels): concentration or dose not given beside the values; %Survival (ATP levels): reference not given here; conditions: for %Survival (ATP levels): 1 μM, 48 h, individual replicates, listed as PU-HZ151; for %Survival of cells at day 0 (ATP levels): mean
97 kinases [21] = target: T18, 97 kinases (Homo sapiens, UniProt Q02750); experiment: scanEDGE off-target screen; assay type: binding; conditions: read-out: %Ctrl MEK1
T18 construct: purchased Ambit Biosciences (scanEDGE / KINOMEscan) scanEDGE 97 kinase panel; host or cells: T7 phage in E. coli BL21-derived host; remaining kinases in HEK-293 cells

97 kinases [22] = target: T19, 97 kinases (Homo sapiens, UniProt O75116); experiment: scanEDGE off-target screen; assay type: binding; conditions: read-out: %Ctrl ROCK2
T19 construct: purchased Ambit Biosciences (scanEDGE / KINOMEscan) scanEDGE 97 kinase panel; host or cells: T7 phage in E. coli BL21-derived host; remaining kinases in HEK-293 cells

97 kinases [23] = target: T20, 97 kinases (Homo sapiens, UniProt P11309); experiment: scanEDGE off-target screen; assay type: binding; conditions: read-out: %Ctrl PIM1
T20 construct: purchased Ambit Biosciences (scanEDGE / KINOMEscan) scanEDGE 97 kinase panel; host or cells: T7 phage in E. coli BL21-derived host; remaining kinases in HEK-293 cells

97 kinases [24] = target: T21, 97 kinases (Homo sapiens, UniProt P42336); experiment: scanEDGE off-target screen; assay type: binding; conditions: read-out: %Ctrl PIK3CA
T21 construct: purchased Ambit Biosciences (scanEDGE / KINOMEscan) scanEDGE 97 kinase panel; host or cells: T7 phage in E. coli BL21-derived host; remaining kinases in HEK-293 cells

97 kinases [25] = target: T22, 97 kinases (Homo sapiens, UniProt Q13177); experiment: scanEDGE off-target screen; assay type: binding; conditions: read-out: %Ctrl PAK2
T22 construct: purchased Ambit Biosciences (scanEDGE / KINOMEscan) scanEDGE 97 kinase panel; host or cells: T7 phage in E. coli BL21-derived host; remaining kinases in HEK-293 cells

97 kinases [26] = target: T23, 97 kinases (Homo sapiens, UniProt Q96GD4); experiment: scanEDGE off-target screen; assay type: binding; conditions: read-out: %Ctrl AURKB
T23 construct: purchased Ambit Biosciences (scanEDGE / KINOMEscan) scanEDGE 97 kinase panel; host or cells: T7 phage in E. coli BL21-derived host; remaining kinases in HEK-293 cells

97 kinases [27] = target: T24, 97 kinases (Homo sapiens, UniProt Q9HBH9); experiment: scanEDGE off-target screen; assay type: binding; conditions: read-out: %Ctrl MKNK2
T24 construct: purchased Ambit Biosciences (scanEDGE / KINOMEscan) scanEDGE 97 kinase panel; host or cells: T7 phage in E. coli BL21-derived host; remaining kinases in HEK-293 cells

97 kinases [28] = target: T25, 97 kinases (Homo sapiens, UniProt P80192); experiment: scanEDGE off-target screen; assay type: binding; conditions: read-out: %Ctrl MLK1
T25 construct: purchased Ambit Biosciences (scanEDGE / KINOMEscan) scanEDGE 97 kinase panel; host or cells: T7 phage in E. coli BL21-derived host; remaining kinases in HEK-293 cells

97 kinases [29] = target: T26, 97 kinases (Homo sapiens, UniProt P22607); experiment: scanEDGE off-target screen; assay type: binding; conditions: read-out: %Ctrl FGFR3
T26 construct: purchased Ambit Biosciences (scanEDGE / KINOMEscan) scanEDGE 97 kinase panel; host or cells: T7 phage in E. coli BL21-derived host; remaining kinases in HEK-293 cells

97 kinases [30] = target: T27, 97 kinases (Homo sapiens, UniProt P00533); experiment: scanEDGE off-target screen; assay type: binding; conditions: read-out: %Ctrl EGFR
T27 construct: purchased Ambit Biosciences (scanEDGE / KINOMEscan) scanEDGE 97 kinase panel; host or cells: T7 phage in E. coli BL21-derived host; remaining kinases in HEK-293 cells
T27 sequence (P00533 25-1210): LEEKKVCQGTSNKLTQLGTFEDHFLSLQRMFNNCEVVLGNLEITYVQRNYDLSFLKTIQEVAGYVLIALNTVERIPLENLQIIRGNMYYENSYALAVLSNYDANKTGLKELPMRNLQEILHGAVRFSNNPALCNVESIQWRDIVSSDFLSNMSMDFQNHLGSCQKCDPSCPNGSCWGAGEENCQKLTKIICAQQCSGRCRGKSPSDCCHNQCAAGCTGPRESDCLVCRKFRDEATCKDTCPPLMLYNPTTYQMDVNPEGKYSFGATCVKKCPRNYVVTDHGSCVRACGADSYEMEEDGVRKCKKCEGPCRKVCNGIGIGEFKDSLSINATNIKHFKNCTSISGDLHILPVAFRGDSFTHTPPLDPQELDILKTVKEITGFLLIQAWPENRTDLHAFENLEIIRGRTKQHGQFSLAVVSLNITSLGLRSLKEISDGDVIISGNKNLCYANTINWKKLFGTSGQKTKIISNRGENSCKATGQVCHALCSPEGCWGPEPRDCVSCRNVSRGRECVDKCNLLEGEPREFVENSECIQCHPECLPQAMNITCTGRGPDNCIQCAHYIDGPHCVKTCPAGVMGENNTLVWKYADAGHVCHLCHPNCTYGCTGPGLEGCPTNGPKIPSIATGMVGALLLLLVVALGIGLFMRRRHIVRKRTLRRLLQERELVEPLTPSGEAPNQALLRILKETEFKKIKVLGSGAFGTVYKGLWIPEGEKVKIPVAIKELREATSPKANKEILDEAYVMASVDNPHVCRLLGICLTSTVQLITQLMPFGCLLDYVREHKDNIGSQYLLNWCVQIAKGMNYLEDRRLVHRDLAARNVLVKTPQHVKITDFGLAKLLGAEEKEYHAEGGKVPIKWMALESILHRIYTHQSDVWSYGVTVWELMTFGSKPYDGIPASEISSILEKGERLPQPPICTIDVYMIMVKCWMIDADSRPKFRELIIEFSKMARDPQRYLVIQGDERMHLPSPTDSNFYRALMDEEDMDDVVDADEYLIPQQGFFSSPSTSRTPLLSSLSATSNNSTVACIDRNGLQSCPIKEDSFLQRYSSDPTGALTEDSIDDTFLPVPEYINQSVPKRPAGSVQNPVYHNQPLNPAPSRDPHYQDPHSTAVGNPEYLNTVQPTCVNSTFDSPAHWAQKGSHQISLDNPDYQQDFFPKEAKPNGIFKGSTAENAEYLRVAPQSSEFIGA

T20 sequence (P11309 whole entry): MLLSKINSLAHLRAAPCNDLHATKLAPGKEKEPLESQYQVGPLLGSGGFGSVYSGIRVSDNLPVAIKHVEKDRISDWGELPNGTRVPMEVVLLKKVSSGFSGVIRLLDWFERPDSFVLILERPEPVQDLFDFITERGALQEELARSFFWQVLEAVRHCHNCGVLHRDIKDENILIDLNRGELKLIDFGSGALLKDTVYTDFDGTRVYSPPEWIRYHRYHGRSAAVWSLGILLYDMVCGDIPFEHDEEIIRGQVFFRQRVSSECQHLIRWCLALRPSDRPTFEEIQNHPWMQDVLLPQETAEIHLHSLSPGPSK
T18 sequence (Q02750 whole entry): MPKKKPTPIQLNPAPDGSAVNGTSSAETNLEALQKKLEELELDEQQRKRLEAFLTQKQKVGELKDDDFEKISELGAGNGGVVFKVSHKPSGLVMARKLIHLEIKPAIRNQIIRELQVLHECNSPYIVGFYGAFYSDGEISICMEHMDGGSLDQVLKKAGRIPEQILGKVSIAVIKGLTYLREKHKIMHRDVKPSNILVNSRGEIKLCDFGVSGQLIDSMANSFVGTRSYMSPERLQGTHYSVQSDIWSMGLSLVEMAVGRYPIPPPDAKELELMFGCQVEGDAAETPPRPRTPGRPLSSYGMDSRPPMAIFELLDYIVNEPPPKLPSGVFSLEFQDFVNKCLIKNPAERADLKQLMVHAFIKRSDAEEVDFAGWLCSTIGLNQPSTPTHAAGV
T22 sequence (Q13177 whole entry): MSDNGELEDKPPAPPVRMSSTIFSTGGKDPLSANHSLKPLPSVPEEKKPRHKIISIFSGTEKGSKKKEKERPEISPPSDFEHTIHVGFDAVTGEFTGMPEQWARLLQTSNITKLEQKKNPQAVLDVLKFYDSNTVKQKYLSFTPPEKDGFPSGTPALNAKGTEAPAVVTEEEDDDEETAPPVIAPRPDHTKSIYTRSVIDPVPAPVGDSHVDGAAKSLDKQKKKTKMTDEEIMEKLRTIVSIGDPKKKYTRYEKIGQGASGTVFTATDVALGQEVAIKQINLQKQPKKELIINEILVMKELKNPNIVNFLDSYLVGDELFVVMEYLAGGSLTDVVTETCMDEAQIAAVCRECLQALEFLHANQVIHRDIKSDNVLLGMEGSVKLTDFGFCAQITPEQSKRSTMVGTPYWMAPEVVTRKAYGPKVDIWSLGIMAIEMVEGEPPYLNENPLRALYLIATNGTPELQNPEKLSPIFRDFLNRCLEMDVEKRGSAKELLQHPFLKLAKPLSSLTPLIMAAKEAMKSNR
T19 sequence (O75116 whole entry): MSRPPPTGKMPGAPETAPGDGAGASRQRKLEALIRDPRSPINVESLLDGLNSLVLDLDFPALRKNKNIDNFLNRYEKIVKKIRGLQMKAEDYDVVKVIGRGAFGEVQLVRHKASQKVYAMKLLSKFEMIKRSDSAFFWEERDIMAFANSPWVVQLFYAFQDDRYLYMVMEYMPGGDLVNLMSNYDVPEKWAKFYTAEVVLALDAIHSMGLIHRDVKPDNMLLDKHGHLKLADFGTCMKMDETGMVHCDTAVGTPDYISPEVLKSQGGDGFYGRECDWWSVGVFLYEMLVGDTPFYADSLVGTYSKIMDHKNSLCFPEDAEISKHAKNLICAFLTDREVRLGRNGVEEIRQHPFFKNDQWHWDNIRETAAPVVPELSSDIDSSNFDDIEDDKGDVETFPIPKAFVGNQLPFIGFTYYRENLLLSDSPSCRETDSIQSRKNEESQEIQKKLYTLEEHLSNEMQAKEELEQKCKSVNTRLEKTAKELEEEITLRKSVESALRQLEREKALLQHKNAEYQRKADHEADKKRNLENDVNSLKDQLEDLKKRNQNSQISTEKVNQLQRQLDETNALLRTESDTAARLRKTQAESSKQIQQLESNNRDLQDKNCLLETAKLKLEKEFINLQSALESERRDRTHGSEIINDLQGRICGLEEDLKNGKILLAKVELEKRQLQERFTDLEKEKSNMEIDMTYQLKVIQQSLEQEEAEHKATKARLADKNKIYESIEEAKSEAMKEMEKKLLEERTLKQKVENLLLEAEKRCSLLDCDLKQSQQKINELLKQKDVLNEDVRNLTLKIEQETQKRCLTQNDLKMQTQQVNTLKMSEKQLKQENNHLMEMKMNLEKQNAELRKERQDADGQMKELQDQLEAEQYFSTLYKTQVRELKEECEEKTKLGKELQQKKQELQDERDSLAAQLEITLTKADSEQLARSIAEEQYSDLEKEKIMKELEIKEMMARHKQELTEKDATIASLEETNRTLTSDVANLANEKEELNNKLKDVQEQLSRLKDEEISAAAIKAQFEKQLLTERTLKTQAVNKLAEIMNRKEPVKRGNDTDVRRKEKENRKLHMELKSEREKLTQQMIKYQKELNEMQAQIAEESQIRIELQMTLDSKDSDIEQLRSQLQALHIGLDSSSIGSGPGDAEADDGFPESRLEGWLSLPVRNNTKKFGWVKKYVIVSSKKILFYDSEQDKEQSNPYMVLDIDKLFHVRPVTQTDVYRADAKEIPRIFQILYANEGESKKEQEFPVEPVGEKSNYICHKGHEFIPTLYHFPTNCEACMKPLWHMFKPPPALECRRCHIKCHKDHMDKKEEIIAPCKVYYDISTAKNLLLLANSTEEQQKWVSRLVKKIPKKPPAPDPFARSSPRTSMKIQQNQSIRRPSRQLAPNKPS
T23 sequence (Q96GD4 whole entry): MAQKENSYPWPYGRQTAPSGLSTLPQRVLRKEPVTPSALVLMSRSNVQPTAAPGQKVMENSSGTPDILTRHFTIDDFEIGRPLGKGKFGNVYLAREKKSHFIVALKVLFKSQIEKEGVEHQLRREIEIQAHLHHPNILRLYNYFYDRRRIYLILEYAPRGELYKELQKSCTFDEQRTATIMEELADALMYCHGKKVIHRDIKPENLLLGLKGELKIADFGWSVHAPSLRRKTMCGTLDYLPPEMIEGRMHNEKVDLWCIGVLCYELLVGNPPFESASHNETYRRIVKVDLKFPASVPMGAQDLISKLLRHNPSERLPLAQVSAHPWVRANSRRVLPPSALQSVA
T2 sequence (P50406 whole entry): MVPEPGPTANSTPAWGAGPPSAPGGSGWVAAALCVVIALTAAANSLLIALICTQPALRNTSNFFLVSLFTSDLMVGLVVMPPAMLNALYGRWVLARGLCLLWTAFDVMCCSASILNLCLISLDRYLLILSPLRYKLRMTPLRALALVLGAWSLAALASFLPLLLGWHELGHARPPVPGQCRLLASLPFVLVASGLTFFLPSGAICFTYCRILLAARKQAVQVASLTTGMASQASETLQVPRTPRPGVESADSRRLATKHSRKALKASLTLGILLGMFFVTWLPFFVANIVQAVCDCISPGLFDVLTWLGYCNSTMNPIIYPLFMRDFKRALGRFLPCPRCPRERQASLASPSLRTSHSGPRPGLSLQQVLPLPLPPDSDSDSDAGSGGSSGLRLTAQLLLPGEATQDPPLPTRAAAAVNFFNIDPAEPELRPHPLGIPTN
Sequence of 70 key receptor, enzyme, and ion channel proteins (Homo sapiens, UniProt P11229) (P11229 whole entry): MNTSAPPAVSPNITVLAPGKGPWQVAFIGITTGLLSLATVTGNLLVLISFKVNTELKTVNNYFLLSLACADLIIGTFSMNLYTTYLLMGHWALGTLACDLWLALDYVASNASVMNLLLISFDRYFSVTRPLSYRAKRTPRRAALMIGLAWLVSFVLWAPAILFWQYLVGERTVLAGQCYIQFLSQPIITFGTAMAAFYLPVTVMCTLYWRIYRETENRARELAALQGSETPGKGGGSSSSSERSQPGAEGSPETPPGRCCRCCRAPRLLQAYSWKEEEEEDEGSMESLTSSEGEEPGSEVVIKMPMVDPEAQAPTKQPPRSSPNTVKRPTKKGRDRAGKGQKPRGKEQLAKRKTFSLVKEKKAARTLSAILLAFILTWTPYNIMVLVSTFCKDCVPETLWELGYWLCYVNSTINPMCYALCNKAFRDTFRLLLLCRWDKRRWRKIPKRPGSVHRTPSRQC

## CC(C)(C)CNCCn1c(Sc2cc3c(cc2I)OCO3)nc2c(N)ncnc21 [Compound 85]
[1]
  inhibition at 10 µM: -18%
[2]
  Percent Inhibition: Serotonin, 5HT6 (h): 17.73%
[3]
  Percent Inhibition: Endothelin, ET-A (h): 13.54%
[4]
  Percent Inhibition: Adenosine, A2A (h): 0.79%
[5]
  Percent Inhibition: Muscarinic, M2 (h): 45.44%
[6]
  Percent Inhibition: Phosphodiesterase, PDE5Al (h): -35.00%
[7]
  Percent Inhibition: Adenosine Transporter (h): -3.54%
[8]
  Percent Inhibition: Dopamine, D4. 4 (h): 10.85%
[9]
  Percent Inhibition: Serotonin, 5HT5A (h): 11.09%
[10]
  Percent Inhibition: Muscarinic, M4 (h): 27.60%
[11]
  Percent Inhibition: Thromboxane AZ (h): 20.84%
[12]
  Percent Inhibition: Dopamine, Dl (h): 8.03%
[13]
  Percent Inhibition: Serotonin, 5HT1A (h): -16.30%
[14]
  Percent Inhibition: Adrenergic, Beta 2 (h): 3.05%
[15]
  Percent Inhibition: Opioid, Mu (h): 56.70%
[16]
  Percent Inhibition: Muscarinic, Ml (hr): 26.84%
[17]
  Percent Inhibition: Serotonin, 5HT7 (h): 14.36%
[18]
  Percent Inhibition: Opioid, Delta 2 (h): 20.37%
[19]
  Percent Inhibition: Neuropeptide, NPY2 (h): 28.79%
[20]
  inhibition at 10 µM: 69.9%
patient-derived GSCs; GSC #5
  %Survival (ATP levels): 31.63% and 18.68% and 4.03% and -9.88%
patient-derived GSCs; GSC #6
  %Survival (ATP levels): -14.27% and -27.68% and -18.96% and -23.61%
patient-derived GSCs; GSC #7
  %Survival (ATP levels): -51.27% and -33.16% and -43.96% and -19.32%
patient-derived GSCs; GSC #8
  %Survival (ATP levels): -82.2411% and -82.5656% and -44.1066% and -65.5015% and -65.6835% and -64.1317%
patient-derived GSCs; GSC #9
  %Survival (ATP levels): -79.4354% and -88.1536% and -74.4757% and -75.2771% and -91.5176% and -88.8402%
patient-derived GSCs; GSC #10
  %Survival (ATP levels): -43.1943% and -48.7032% and -76.5217% and -90.9365%
patient-derived GSCs; GSC #13
  %Survival (ATP levels): -9.18% and -20.17% and 1.94% and -5.51% and 23.62% and 22.18%
patient-derived GSCs; GSC #15
  %Survival (ATP levels): -58.61% and -73.45% and -36.64% and -48.92%
patient-derived GSCs; GSC #18
  %Survival (ATP levels): -64.4% and -60.27% and -57.05% and -50.97%
patient-derived GSCs; GSC #19
  %Survival (ATP levels): -11.96% and -35.33% and -40.35% and -2.66% and -9.81%
patient-derived GSCs; GSC #24
  %Survival (ATP levels): -81.22% and -79.53% and -20.38% and -28.49%
patient-derived GSCs; GSC #30
  %Survival (ATP levels): -95.74% and -99.62% and -58.98% and -67.84% and -66.79% and -85.07% and -94.89%
patient-derived GSCs; GSC #31
  %Survival (ATP levels): 36.5% and 32.49% and 59.07% and 79.62% and 33.55% and 9%
patient-derived GSCs; GSC# 5
  %Survival of cells at day 0 (ATP levels): 11.1%
patient-derived GSCs; GSC# 6
  %Survival of cells at day 0 (ATP levels): -21.1%
patient-derived GSCs; GSC# 8
  %Survival of cells at day 0 (ATP levels): -67.4%
patient-derived GSCs; GSC# 9
  %Survival of cells at day 0 (ATP levels): -82.9%
patient-derived GSCs; GSC# 10
  %Survival of cells at day 0 (ATP levels): -64.8%
patient-derived GSCs; GSC# 13
  %Survival of cells at day 0 (ATP levels): 2.1%
patient-derived GSCs; GSC# 15
  %Survival of cells at day 0 (ATP levels): -54.4%
patient-derived GSCs; GSC# 17
  %Survival of cells at day 0 (ATP levels): 16.9%
patient-derived GSCs; GSC# 18
  %Survival of cells at day 0 (ATP levels): -58.2%
patient-derived GSCs; GSC# 19
  %Survival of cells at day 0 (ATP levels): -20%
patient-derived GSCs; GSC# 24
  %Survival of cells at day 0 (ATP levels): -52.4%
patient-derived GSCs; GSC# 30
  %Survival of cells at day 0 (ATP levels): -81.3%
patient-derived GSCs; GSC# 31
  %Survival of cells at day 0 (ATP levels): 41.7%
97 kinases [21]
  remaining binding at 10 µM: 99%
97 kinases [22]
  remaining binding at 10 µM: 97%
97 kinases [23]
  remaining binding at 10 µM: 79%
97 kinases [24]
  remaining binding at 10 µM: 87%
97 kinases [25]
  remaining binding at 10 µM: 97%
97 kinases [26]
  remaining binding at 10 µM: 73%
97 kinases [27]
  remaining binding at 10 µM: 93%
97 kinases [28]
  remaining binding at 10 µM: 100%
97 kinases [29]
  remaining binding at 10 µM: 95%
97 kinases [30]
  remaining binding at 10 µM: 96%
